# Data as given in US12448389B2, “BRM targeting compounds and associated methods of use” (Prelude Therapeutics Incorporated, priority 2020, dated 2025).
# Legend:
# SMARCA4-HiBiT = biological target: T1, SMARCA4-HiBiT (Homo sapiens, UniProt P51532); assay: SMARCA4 HiBiT degradation assay in HeLa cells; format: cell-based; conditions: 18 hours incubation; for DC50: read-out: HeLa-HiBit-SM4 DC50; for Dmax: HeLa, read-out: HeLa-HiBit-SM4 Dmax (%)
# T1 construct: SMARCA4-HiBiT knock-in Hela monoclonal cell (CS3023226); host or cells: HeLa monoclonal knock-in line (CRISPR HiBiT knock-in at the endogenous locus, heterozygous)
# Method in brief: (§1)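 HeLa monoclonal lines with heterozygous HiBiT knock-in were seeded at 2500 cells/well in EMEM with 10% FBS and treated with compound for 18 h at 37 °C. Remaining tagged protein was measured by Nano-Glo HiBiT lytic luminescence after 30–60 min at RT, and values came from curve fitting.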
# SMARCA2-HiBiT = biological target: T2, SMARCA2-HiBiT (Homo sapiens, UniProt P51531); assay: SMARCA2 HiBiT degradation assay in HeLa cells; format: cell-based; conditions: 18 hours incubation; for DC50: read-out: HeLa_HiBit-SM2 DC50; for Dmax: HeLa, read-out: HeLa-HiBit-SM2 Dmax (%)
# T2 construct: SMARCA2-HiBiT knock-in Hela monoclonal cell (CS302366); host or cells: HeLa monoclonal knock-in line (CRISPR HiBiT knock-in at the endogenous locus, heterozygous)
# Method in brief: as §1
# T2 sequence (P51531 whole entry): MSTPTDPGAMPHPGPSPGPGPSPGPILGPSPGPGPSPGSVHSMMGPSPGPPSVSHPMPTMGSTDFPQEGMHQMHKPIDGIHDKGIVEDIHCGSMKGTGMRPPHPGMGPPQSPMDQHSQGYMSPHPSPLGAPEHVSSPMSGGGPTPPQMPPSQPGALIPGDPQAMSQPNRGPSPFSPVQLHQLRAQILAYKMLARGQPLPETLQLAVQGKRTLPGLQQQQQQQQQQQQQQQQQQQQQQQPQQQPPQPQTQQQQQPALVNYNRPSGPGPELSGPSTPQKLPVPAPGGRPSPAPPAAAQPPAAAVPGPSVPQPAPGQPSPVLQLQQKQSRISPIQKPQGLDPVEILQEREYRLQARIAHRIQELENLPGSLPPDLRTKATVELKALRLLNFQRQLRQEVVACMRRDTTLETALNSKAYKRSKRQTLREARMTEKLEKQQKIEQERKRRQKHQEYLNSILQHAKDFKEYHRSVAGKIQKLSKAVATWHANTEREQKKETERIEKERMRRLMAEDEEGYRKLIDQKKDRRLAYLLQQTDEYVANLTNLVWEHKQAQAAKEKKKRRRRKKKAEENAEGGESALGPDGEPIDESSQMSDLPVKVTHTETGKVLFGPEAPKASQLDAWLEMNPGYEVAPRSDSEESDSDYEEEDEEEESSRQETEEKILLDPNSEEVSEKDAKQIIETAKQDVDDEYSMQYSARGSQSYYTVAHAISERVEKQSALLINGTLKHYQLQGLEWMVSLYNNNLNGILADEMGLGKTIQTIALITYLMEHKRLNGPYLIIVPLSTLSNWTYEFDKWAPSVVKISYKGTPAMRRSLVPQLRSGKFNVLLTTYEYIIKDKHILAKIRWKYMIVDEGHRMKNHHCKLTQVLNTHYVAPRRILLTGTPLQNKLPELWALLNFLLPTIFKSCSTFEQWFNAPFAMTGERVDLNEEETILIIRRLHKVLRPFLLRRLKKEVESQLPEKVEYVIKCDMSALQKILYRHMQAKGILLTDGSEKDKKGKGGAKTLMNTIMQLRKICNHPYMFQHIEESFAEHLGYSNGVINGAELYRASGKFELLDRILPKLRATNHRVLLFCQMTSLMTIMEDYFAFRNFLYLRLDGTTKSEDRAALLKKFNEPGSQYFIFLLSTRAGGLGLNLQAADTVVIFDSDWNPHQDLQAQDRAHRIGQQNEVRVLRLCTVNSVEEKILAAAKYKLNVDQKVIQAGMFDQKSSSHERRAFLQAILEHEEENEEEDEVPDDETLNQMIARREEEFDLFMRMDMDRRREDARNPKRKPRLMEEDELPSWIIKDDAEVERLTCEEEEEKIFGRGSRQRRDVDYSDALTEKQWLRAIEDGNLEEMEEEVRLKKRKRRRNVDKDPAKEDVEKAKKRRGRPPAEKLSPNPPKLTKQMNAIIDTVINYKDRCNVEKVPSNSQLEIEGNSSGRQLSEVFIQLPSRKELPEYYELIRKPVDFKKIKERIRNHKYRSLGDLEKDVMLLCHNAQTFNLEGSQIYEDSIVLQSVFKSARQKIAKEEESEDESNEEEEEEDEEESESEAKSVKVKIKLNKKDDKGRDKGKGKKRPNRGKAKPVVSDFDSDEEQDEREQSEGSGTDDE
# T1 sequence (P51532 whole entry): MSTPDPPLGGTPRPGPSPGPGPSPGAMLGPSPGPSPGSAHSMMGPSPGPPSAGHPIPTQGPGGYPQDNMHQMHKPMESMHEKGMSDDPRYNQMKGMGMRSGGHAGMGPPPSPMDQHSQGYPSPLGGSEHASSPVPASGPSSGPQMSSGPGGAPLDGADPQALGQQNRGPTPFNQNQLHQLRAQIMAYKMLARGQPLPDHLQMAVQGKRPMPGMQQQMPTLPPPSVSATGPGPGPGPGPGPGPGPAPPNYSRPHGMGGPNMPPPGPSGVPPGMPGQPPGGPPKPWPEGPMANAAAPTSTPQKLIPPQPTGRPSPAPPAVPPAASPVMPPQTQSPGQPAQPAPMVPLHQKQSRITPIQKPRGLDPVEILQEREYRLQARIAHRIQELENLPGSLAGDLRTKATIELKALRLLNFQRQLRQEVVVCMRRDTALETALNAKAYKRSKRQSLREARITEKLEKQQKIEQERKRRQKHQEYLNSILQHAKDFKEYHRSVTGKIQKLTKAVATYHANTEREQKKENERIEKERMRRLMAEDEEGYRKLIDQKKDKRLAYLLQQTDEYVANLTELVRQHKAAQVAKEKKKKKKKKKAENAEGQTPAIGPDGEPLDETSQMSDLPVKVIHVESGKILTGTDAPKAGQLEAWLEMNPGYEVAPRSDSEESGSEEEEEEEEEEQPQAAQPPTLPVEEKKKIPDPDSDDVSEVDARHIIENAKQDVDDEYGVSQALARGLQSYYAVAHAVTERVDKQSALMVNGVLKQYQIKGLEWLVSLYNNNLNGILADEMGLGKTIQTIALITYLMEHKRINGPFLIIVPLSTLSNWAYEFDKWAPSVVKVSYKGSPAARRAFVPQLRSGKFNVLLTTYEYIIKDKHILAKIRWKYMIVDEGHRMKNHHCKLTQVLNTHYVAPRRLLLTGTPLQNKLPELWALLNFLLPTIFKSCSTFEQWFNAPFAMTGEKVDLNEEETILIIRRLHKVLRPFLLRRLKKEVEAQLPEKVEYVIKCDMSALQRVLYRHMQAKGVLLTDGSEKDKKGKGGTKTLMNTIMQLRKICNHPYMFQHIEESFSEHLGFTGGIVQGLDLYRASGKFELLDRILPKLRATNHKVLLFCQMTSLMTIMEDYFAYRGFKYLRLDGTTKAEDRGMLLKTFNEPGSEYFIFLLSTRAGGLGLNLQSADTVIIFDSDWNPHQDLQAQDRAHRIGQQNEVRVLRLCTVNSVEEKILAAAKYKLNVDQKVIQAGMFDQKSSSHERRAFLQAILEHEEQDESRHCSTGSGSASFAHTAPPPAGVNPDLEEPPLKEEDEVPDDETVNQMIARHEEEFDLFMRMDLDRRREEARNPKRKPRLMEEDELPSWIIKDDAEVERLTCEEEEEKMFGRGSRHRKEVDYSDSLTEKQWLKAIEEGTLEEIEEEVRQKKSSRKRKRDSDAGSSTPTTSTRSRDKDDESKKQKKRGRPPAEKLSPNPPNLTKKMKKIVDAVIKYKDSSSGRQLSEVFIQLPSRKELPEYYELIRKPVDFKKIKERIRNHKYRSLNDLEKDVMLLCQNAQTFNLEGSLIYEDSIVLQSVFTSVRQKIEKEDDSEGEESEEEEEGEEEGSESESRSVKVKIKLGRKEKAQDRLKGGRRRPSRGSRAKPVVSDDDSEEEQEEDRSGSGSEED
DC50 (SMARCA4-HiBiT) [nM],Dmax (SMARCA4-HiBiT) [%],DC50 (SMARCA2-HiBiT) [nM],Dmax (SMARCA2-HiBiT) [%],Structure (SMILES)
10 to 100,50 to 75,< 10,75 to 85,"O=C1CCC(N2C(=O)c3ccc(N4CCN(CC5CCN(C(=O)N6CCN7c8cc(-c9ccccc9O)nnc8NC[C@H]7C6)CC5)CC4)cc3C2=O)C(=O)N1 (stereo partly drawn) [Example 142, 2-(2,6-dioxopiperidin-3-yl)-5-(4-((1-((S)-2-(2-hydroxyphenyl)-6,6a,7,8,9,10-hexahydro-5H-pyrazino[1′,2′:4,5]pyrazino[2,3-c]pyridazine-8-carbonyl)piperidin-4-yl)methyl)piperazin-1-yl)isoindoline-1,3-dione]"
< 10,75 to 85,< 10,> 85,"C[C@@H]1CN(CC2CCN(c3ccc4c(c3)C(=O)N(C3CCC(=O)NC3=O)C4)CC2)CCN1C(=O)N1CCN2c3cc(-c4ccccc4O)nnc3NC[C@H]2C1 (stereo partly drawn) [Example 114, 3-(6-(4-(((R)-4-((S)-2-(2-hydroxyphenyl)-6,6a,7,8,9,10-hexahydro-5H-pyrazino[1′,2′:4,5]pyrazino[2,3-c]pyridazine-8-carbonyl)-3-methylpiperazin-1-yl)methyl)piperidin-1-yl)-1-oxoisoindolin-2-yl)piperidine-2,6-dione]"
< 10,> 85,< 10,> 85,"O=C1CCC(N2C(=O)c3ccc(N4CCC(N[C@H]5C[C@@H](CN6CCN7c8cc(-c9ccccc9O)nnc8NC[C@H]7C6)C5)CC4)cc3C2=O)C(=O)N1 (stereo partly drawn) [Example 76, 2-(2,6-dioxopiperidin-3-yl)-5-(4-(((1R,3s)-3-(((S)-2-(2-hydroxyphenyl)-5,6,6a,7,9,10-hexahydro-8H-pyrazino[1′,2′:4,5]pyrazino[2,3-c]pyridazin-8-yl)methyl)cyclobutyl)amino)piperidin-1-yl)isoindoline-1,3-dione]"
< 10,75 to 85,< 10,> 85,"CC1CN(CC2CCN(c3ccc4c(c3)C(=O)N(C3CCC(=O)NC3=O)C4)CC2)CCC1C(=O)N1CCN2c3cc(-c4ccccc4O)nnc3NC[C@H]2C1 (stereo partly drawn) [Example 264, 3-(6-(4-((4-((S)-2-(2-hydroxyphenyl)-6,6a,7,8,9,10-hexahydro-5H-pyrazino[1′,2′:4,5]pyrazino[2,3-c]pyridazine-8-carbonyl)-3-methylpiperidin-1-yl)methyl)piperidin-1-yl)-1-oxoisoindolin-2-yl)piperidine-2,6-dione]"
< 10,> 85,< 10,> 85,"O=C1CCC(N2Cc3cc(CN4CCC(N5CCC(N6CCN7c8cc(-c9ccccc9O)nnc8NC[C@H]7C6)CC5)CC4)ccc3C2=O)C(=O)N1 (stereo partly drawn) [Example 63, 3-(5-((4-((S)-2-(2-hydroxyphenyl)-5,6,6a,7,9,10-hexahydro-8H-pyrazino[1′,2′:4,5]pyrazino[2,3-c]pyridazin-8-yl)-[1,4′-bipiperidin]-1′-yl)methyl)-1-oxoisoindolin-2-yl)piperidine-2,6-dione]"
< 10,75 to 85,< 10,> 85,"CC12CNc3nnc(-c4ccccc4O)cc3N1CCN(C1CCN(CCCc3ccc4c(c3)c3cccnc3n4C3CCC(=O)NC3=O)CC1)C2 (stereo not drawn) [Example 25, 3-(6-(3-(4-(2-(2-hydroxyphenyl)-6a-methyl-5,6,6a,7,9,10-hexahydro-8H-pyrazino[1′,2′:4,5]pyrazino[2,3-c]pyridazin-8-yl)piperidin-1-yl)propyl)-9H-pyrido[2,3-b]indol-9-yl)piperidine-2,6-dione]"
< 10,> 85,< 10,> 85,"C[C@@H]1C[C@H](CN2CCC(CN3CCN4c5cc(-c6ccccc6O)nnc5NC[C@H]4C3)CC2)CCN1c1cc2c(cc1F)C(=O)N(C1CCC(=O)NC1=O)C2=O (stereo partly drawn) [Example 174, 2-(2,6-dioxopiperidin-3-yl)-5-fluoro-6-[(2R,4R)-4-[[4-[[(10S)-4-(2-hydroxyphenyl)-1,5,6,8,12-pentazatricyclo[8.4.0.02,7]tetradeca-2,4,6-trien-12-yl]methyl]piperidin-1-yl]methyl]-2-methylpiperidin-1-yl] isoindole-1,3-dione]"
< 10,> 85,< 10,> 85,"NC1(C(=O)OCN2C(=O)CCC(N3C(=O)c4ccc(N5CCC(CN6CCC(CN7CCN8c9cc(-c%10ccccc%10O)nnc9NC[C@H]8C7)CC6)CC5)cc4C3=O)C2=O)CC1 (stereo partly drawn) [Example 131, (3-(5-(4-((4-(((S)-2-(2-hydroxyphenyl)-5,6,6a,7,9,10-hexahydro-8H-pyrazino[1′,2′:4,5]pyrazino[2,3-c]pyridazin-8-yl)methyl)piperidin-1-yl)methyl)piperidin-1-yl)-1,3-dioxoisoindolin-2-yl)-2,6-dioxopiperidin-1-yl)methyl 1-aminocyclopropane-1-carboxylate]"
< 10,75 to 85,< 10,> 85,"O=C1CCC(N2C(=O)c3ccc(N4CCCC(N5CCC(CN6CCN7c8cc(-c9ccccc9O)nnc8NC[C@H]7C6)CC5)C4)cc3C2=O)C(=O)N1 (stereo partly drawn) [Example 218, 2-(2,6-dioxopiperidin-3-yl)-5-(4-(((S)-2-(2-hydroxyphenyl)-5,6,6a,7,9,10-hexahydro-8H-pyrazino[1′,2′:4,5]pyrazino[2,3-c]pyridazin-8-yl)methyl)-[1,3′-bipiperidin]-1′-yl) isoindoline-1,3-dione]"
10 to 100,≤ 50,< 10,50 to 75,"O=C1CCC(N2C(=O)c3ccc(N4Cc5cnc(N6C[C@@H]7[C@@H](CN8CCN9c%10cc(-c%11ccccc%11O)nnc%10NC[C@H]9C8)[C@@H]7C6)nc5C4)cc3C2=O)C(=O)N1 (stereo partly drawn) [Example 58, 2-(2,6-dioxopiperidin-3-yl)-5-(2-((1R,5S,6s)-6-(((S)-2-(2-hydroxyphenyl)-5,6,6a,7,9,10-hexahydro-8H-pyrazino[1′,2′:4,5]pyrazino[2,3-c]pyridazin-8-yl)methyl)-3-azabicyclo[3.1.0]hexan-3-yl)-5,7-dihydro-6H-pyrrolo[3,4-d]pyrimidin-6-yl) isoindoline-1,3-dione]"
< 10,≤ 50,< 10,≤ 50,"O=C1CCC(N2C(=O)c3ccc(N4CCC(CN5CCc6cnc(N7CCN8c9cc(-c%10ccccc%10O)nnc9NC[C@H]8C7)nc6C5)CC4)cc3C2=O)C(=O)N1 (stereo partly drawn) [Example 60, 2-(2,6-dioxopiperidin-3-yl)-5-(4-((2-((S)-2-(2-hydroxyphenyl)-5,6,6a,7,9,10-hexahydro-8H-pyrazino[1′,2′:4,5]pyrazino[2,3-c]pyridazin-8-yl)-5,8-dihydropyrido[3,4-d]pyrimidin-7(6H)-yl)methyl)piperidin-1-yl) isoindoline-1,3-dione]"
< 10,50 to 75,< 10,50 to 75,"O=C1CCC(N2C(=O)c3ccc(N4C[C@@H]5[C@@H](CN6CCC(CN7CCN8c9cc(-c%10ccccc%10O)nnc9NC[C@H]8C7)CC6)[C@@H]5C4)cc3C2=O)C(=O)N1 (stereo partly drawn) [Example 154, 2-(2,6-dioxopiperidin-3-yl)-5-((1R,5S,6s)-6-((4-(((S)-2-(2-hydroxyphenyl)-5,6,6a,7,9,10-hexahydro-8H-pyrazino[1′,2′:4,5]pyrazino[2,3-c]pyridazin-8-yl)methyl)piperidin-1-yl)methyl)-3-azabicyclo[3.1.0]hexan-3-yl)isoindoline-1,3-dione]"
< 10,50 to 75,< 10,50 to 75,"N#CC1(CN2CCC(CN3CCN4c5cc(-c6ccccc6O)nnc5NC[C@H]4C3)CC2)CCN(c2ccc3c(c2)C(=O)N(C2CCC(=O)NC2=O)C3=O)CC1 (stereo partly drawn) [Example 179, 1-[2-(2,6-dioxopiperidin-3-yl)-1,3-dioxoisoindol-5-y]-4-[[4-[[(10S)-4-(2-hydroxyphenyl)-1,5,6,8,12-pentazatricyclo[8.4.0.02,7]tetradeca-2,4,6-trien-12-yl]methyl]piperidin-1-yl]methyl]piperidine-4-carbonitrile]"

Structure (SMILES),DC50 (SMARCA4-HiBiT) [nM],Dmax (SMARCA4-HiBiT) [%],DC50 (SMARCA2-HiBiT) [nM],Dmax (SMARCA2-HiBiT) [%]
"O=C1CCC(N2C(=O)c3cccc(N4CCC(CCCN5C6CCC5CC(N5CCN7c8cc(-c9ccccc9O)nnc8NC[C@H]7C5)C6)CC4)c3C2=O)C(=O)N1 (stereo partly drawn) [Example 125, 2-(2,6-dioxopiperidin-3-yl)-4-(4-(3-(3-((S)-2-(2-hydroxyphenyl)-5,6,6a,7,9,10-hexahydro-8H-pyrazino[1′,2′:4,5]pyrazino[2,3-c]pyridazin-8-yl)-8-azabicyclo[3.2.1]octan-8-yl)propyl)piperidin-1-yl)isoindoline-1,3-dione]",< 10,75 to 85,< 10,75 to 85
"O=C1CCC(N2C(=O)c3ccc(N4CCC(CN5CC6CC(C5)C6CN5CCN6c7cc(-c8ccccc8O)nnc7NC[C@H]6C5)CC4)cc3C2=O)C(=O)N1 (stereo partly drawn) [Example 39, 2-(2,6-dioxopiperidin-3-yl)-5-(4-((6-(((S)-2-(2-hydroxyphenyl)-5,6,6a,7,9,10-hexahydro-8H-pyrazino[1′,2′:4,5]pyrazino[2,3-c]pyridazin-8-yl)methyl)-3-azabicyclo[3.1.1]heptan-3-yl)methyl)piperidin-1-yl)isoindoline-1,3-dione]",< 10,50 to 75,< 10,> 85
